Laboratory results reported in patent US20010041708A1, “Compositions for preventing cellulite in mammalian skin” (Zen-Bio, Inc., priority 2000, published 2001).

What was measured:
[1] = test system: stromal vascular (SV) cells from human adipose tissue; experiment: Triglyceride (TG) content of differentiating primary cultures of SV cells; assay type: cell-based; conditions: day 11
Description: Abdominal adipose tissue (Exp. 1-5) and thigh adipose tissue (Exp. 5b) were obtained from middle-aged females with body mass indexes <30.0 during liposuction or elective surgery. Subsequently, tissue was minced and enzymatically digested for 45 min in a Krebs-Ringer buffer containing 1 mg/mL collagenase (CLS-1, Worthington Biochemical Corp, Lakewood, N.J.), 15 mg/mL bovine serum albumin (BSA), 5 mM glucose and 100 mM HEPES (pH 7.4). Digestion was carried out at a 5 mL/1 g ratio (digestion solution: tissue mass). The digesta was then filtered through 200- and 60-micron mesh and pelleted at 600×g for 5 min. The SV cells were resuspended in a RBC lysis buffer for 10 min and then filtered and recentrifuged to remove contaminating […]. Cultures of SV cells were grown in proliferation medium containing 90% DME/Ham's F-10 (1:1, v/v), 10% (v/v) fetal bovine serum (FBS), 15 mM HEPES (pH 7.4), 60 U/mL penicillin, 60 U/mL streptomycin, and 25 ug/mL fungizone. Cultures were incubated at 37° C. in a humidified […]:CO2 (90:10%) atmosphere. SV cells were grown to 80% confluency and then cryopreserved in liquid nitrogen in aliquots (2×10^6 cells/mL).
Cryopreserved aliquots were subsequently thawed, seeded in T-150 flasks (e.g., 1 vial per 2 T-150 flasks), and grown in proliferation media until 80% confluent. At this time the cells were removed via trypsinization, seeded (3×10^4/cm^2, except for Exp. 1) in 24-well or 96-well (Exp. 5b) Falcon dishes, and allowed to attach for 24 h in proliferation medium. Following attachment, cultures were grown in differentiation medium for the next 3 d which contained DME/Ham's F-10 (1:1,v/v), 15 mM HEPES (pH 7.4), 33 uM biotin, 17 uM pantothenate, 100 nM human insulin, 1 uM dexamethasone (DEX), 60 U/mL penicillin, 60 U/mL streptomycin, 25 ug/mL fungizone, 0.25 mM isobutylmethylxanthine (IBMX), and TZD (Exp. 1 & 2=BRL 49653; Exp. 3-5=Zen Bio's proprietary reagent). Thereafter, cultures were exposed to adipocyte medium consisting of 90% DME/Ham's F-10 (1:1,v/v), 15 mM HEPES (pH 7.4), 3% FBS (v/v), 33 uM biotin, 17 uM pantothenate, 100 nM human insulin, 1 uM DEX, 60 U/mL penicillin, 60 U/mL streptomycin, and 25 ug/mL fungizone. Adipocyte media was replaced every 3 d. […] After 18 day in culture, the majority of the cells contained visual lipid droplets.
Experiment 1 was designed to determine optimal culturing conditions during differentiation of primary cultures of SV cells isolated from human adipose tissue. Specifically, the experiment was designed to determine how seeding density and thiazolidinedione (TZD; PPARγ-agonist BRL 49653) concentration influenced TG content (ug/10^6cells). SV cells were seeded at increasing densities (2-, 3-, or 4×10^4/cm^2) in differentiation media containing 0, 1, or 10 uM TZD (BRL 49653) in this 3×3 factorial design. All cultures received the same adipocyte media after 3 d of differentiation. The cultures were harvested on day 11-12 of differentiation and TG content and cell number were measured. Another set of cultures was stained with Oil Red O and counterstained with Mayer's hematoxylin to assess cellular differentiation potential (n=3 per treatment combination).
In Experiment 2 the impact of linoleic acid and the trans-10, cis-12 isomer of CLA on TG accumulation in these cells was examined. SV cells were seeded at a density of 3×10^4/cm^2 and continuously treated with either 10 uM linoleic acid, 100 uM linoleic acid, 10 uM trans-10, cis-12 CLA, or 100 uM trans-10, cis-12 CLA, and grown under our normal differentiation protocol. One set of control cultures contained only vehicle (BSA) and another contained vehicle plus TZD (BRL 49653). TG content and cell number were measured on day 11 of differentiation.
The objective of Experiment 3 was to evaluate the dose response of trans-10, cis-12 CLA, cis-9, trans-11 CLA, and linoleic acid on TG content of the cultures. […]

3T3-L1 preadipocytes [2] = experiment: TG content of 3T3-L1 preadipocytes; assay type: cell-based, murine
aP2 = aP2 protein expression in 3T3-L1 preadipocytes; assay type: cell-based, murine
[3] = test system: 3T3-L1 adipocyte cell line; experiment: Lipolysis of triglycerides (glycerol release) in 3T3-L1 adipocyte cell line; assay type: cell-based, rodent
PPARγ2 = PPARγ2 protein expression in 3T3-L1 preadipocytes; assay type: cell-based, murine
3T3-L1 preadipocytes [4] = experiment: Fatty acid composition of neutral and phospholipid fractions of treated cultures; assay type: cell-based, murine
[5] = test system: stromal vascular (SV) cells from human adipose tissue; experiment: De novo lipogenesis (14C-glucose incorporation into cellular lipid); assay type: cell-based; conditions: Exp. 5a
Description: Experiments 5a and 5b were designed to determine if the trans-10, cis-12 CLA-mediated reduction in TG content was due to decreased lipogenesis and/or increased lipolysis. In Experiment 5a (lipogenesis), SV cells were seeded at a density of 3×10^4/cm^2 and continuously treated with increasing concentrations (3, 10, or 30 uM) of either linoleic acid, cis-9, tran-11 CLA, or trans-10, cis-12 CLA. A set of control cultures received vehicle (BSA) plus TZD. All cultures received differentiation media (days 1-3), adipocyte media (days 4-9), and low-glucose (˜5 mM) adipocyte media (days 10-12) prior to measuring de novo lipogenesis. On day 12, ^14C-labeled glucose incorporation into the lipid fraction of the cultures was measured for 2 h and, following lipid extraction, the radioactivity in the lipid fraction was determined by scintillation counting. Time course data (not shown) indicated a linear increase in radiolabeled glucose incorporation into lipid over 2 h.
Incorporation of ^14C-glucose into cellular lipid was determined on day 12 of differentiation in cultures chronically treated with fatty acids or vehicle. Following the addition of fatty acids and low glucose (˜5 mM) medium to the cultures on day 12, 1.0 μCi [U-^14C]-glucose ([U-^14C]-D-glucose; SA ˜250 mCi/mmol, ICN, Costa Mesa, Calif.)/mL medium was added to the cultures for 2 h. Our time course study (data not shown) indicated a linear increase in radiolabeled glucose incorporation into lipid over a 2 h period. After 2 h, media containing unincorporated ^14C-glucose was immediately removed and the cultures were washed with 1 mL HBSS to remove unincorporated ^14C-glucose. An additional 1 mL of HBSS was added and, after vigorous tritaration, cells were transferred to glass vials. Five milliliters of a chloroform:methanol (2:1) solution was added to each vial and they were vortexed for 1 min. All samples were then centrifuged for 5 min at 1000×g to further separate the hydrophobic and hydrophilic phases. The lower hydrophobic phase was removed from the tubes and dried under nitrogen at 40° C. Five milliliters of scintillation cocktail (Scinti Verse, Fisher Scientific, Norcross, Ga.) was added to each sample, and the ^14C content was determined by liquid scintillation counting on a Beckman LS 6000 Scintillation Counter (Beckman Instruments, Palo Atlo, Calif.). […] The radioactivity in the lipid fraction from these cultures was subtracted from the total counts. Cell numbers were determined from parallel treatment groups in separate culture dishes at the time of radioisotope addition to the medium. Therefore, mean ^14C-glucose incorporation is expressed as cpm/10^6 cells.

## CCCCC/C=C\C=C\CCCCCCCCC(=O)O [trans-10, cis-12 CLA, 10-trans, 12-cis conjugated linoleic acid]
[1]; Exp. 2, 10 uM, continuous treatment
  Less TG (ug/10^6 cells) than TZD-supplemented vehicle control cultures: 76%
[1]; Exp. 2, 100 uM, continuous treatment
  TG content vs other treatments / TZD treated vehicle controls: not significantly different
[1]; Exp. 3, 30 uM
  TG content vs TZD treated vehicle controls: not significantly different
[1]; Exp. 3, 1-10 uM
  TG content, dose response: decreased
[1]; Exp. 4, 10 uM alone
  Less TG content compared to TZD treated vehicle controls: approximately 60%
3T3-L1 preadipocytes [2]
  TG content, treatment during only the first 3 d of differentiation: not sufficient to lower TG concentrations
3T3-L1 preadipocytes [2]; 3T3-L1 adipocyte cell line
  Triglyceride content in 3T3-L1 adipocyte cells: decreasing triglyceride content
3T3-L1 preadipocytes [2]; 3T3-L1 preadipocytes
  TG-lowering effect: responsible for the TG-lowering effects
3T3-L1 preadipocytes [2]; vs treatment during last 3 d
  TG content, treatment during entire period of differentiation: reduced TG content to a greater extent than treatment during the last 3 d of differentiation
aP2; after 6 d of treatment
  aP2 protein expression: decreased
aP2; day 2 or 4 of differentiation
  aP2 protein expression: did not affect aP2 protein expression
[3]
  Glycerol release by the cells: increased glycerol release
PPARγ2; after 6 d of treatment
  PPARγ2 protein expression: decreased
PPARγ2; day 2 of differentiation
  PPARγ2 protein expression compared to BSA controls: increased PPARγ2 expression
PPARγ2; day 4 of differentiation
  PPARγ2 protein expression: no effect on PPARγ2 protein expression
3T3-L1 preadipocytes [4]
  Amount of cis-9 oleic acid: increased
  Level of linoleic acid (18:2): increased
3T3-L1 preadipocytes [4]; 50 uM, neutral and polar lipid fractions
  Amount of cis-11 oleic acid (18:1) compared to BSA controls: lower amounts
3T3-L1 preadipocytes [4]; 50 uM, neutral lipid fraction
  Amount of palmitoleic acid (16:1) compared to BSA controls: lower amounts
3T3-L1 preadipocytes [4]; increasing level in culture
  Arachidonic acid (AA) in the phospholipid fraction: dose-dependent increase
3T3-L1 preadipocytes [4]; neutral and phospholipid fractions
  Incorporation into cellular lipid fractions: incorporated into the neutral and phospholipid fractions
[5]; 30 uM, day 12, 2 h
  Less 14C-glucose incorporated into cellular lipid compared to TZD treated vehicle controls: 80%
[5]; 3, 10, 30 uM, day 12
  Incorporation of 14C-glucose into cellular lipid per 10^6 cells, dose response: decreased
